Where “and” joins values, the source holds several entries; their conditions need not be identical. Equal values may be shown once.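 48-hour exposure; five concentrations; linearly interpolated endpoints. At the GI50, growth is halved. Definition used: TGI = concentration required for complete inhibition of growth.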

Test systems include UACC-62 melanoma; DU-145 prostate; SF-268 CNS; NCI-H460 lung; T-47D breast; COLO 205 colon; SN12C renal; 786-0 renal; MDA-MB-435; IGROV1 ovarian.
Holding throughout (assay): NCI-60 cell line screen, 48 h

For `CCOC(=O)C1=C(N)Oc2cc(OC)ccc2C1c1ccc(F)c(F)c1` (configuration not stated), the GI50 is 0.558 µM in the test with UACC-62 melanoma; 2.56 µM with DU-145 prostate; 8.56 µM in the test on SF-268 CNS; 1.01 µM in the test on NCI-H460 lung; 1.72 µM in the test with T-47D breast; 1.05 µM in the test with COLO 205 colon. Further, the GI50 in the test with SN12C renal is 4.97 µM; in the test with 786-0 renal, 3.45 µM; in the test with MDA-MB-435, 0.229 µM; in the test on IGROV1 ovarian, 2.72 µM. Besides, the TGI in the test with UACC-62 melanoma came out at 15.4 µM; in the test with DU-145 prostate, 11.4 µM; in the test with SF-268 CNS, 23.5 µM; in the test with NCI-H460 lung it was 15.2 µM; in the test with T-47D breast it was 20 µM; with COLO 205 colon it was 8.97 µM. The TGI with SN12C renal was found to be 19.5 µM; with 786-0 renal, 16.8 µM; with MDA-MB-435 it was 0.844 µM; in the test on IGROV1 ovarian, 20.1 µM.

In the case of `O=S(=O)(c1ccccc1)C1CN(Cc2ccccc2)CCN(Cc2ccccc2)C1`, the TGI in the test on UACC-62 melanoma was greater than 68.1 µM; in the test with DU-145 prostate, greater than 100 µM; in the test on SF-268 CNS, 97.7 µM; with NCI-H460 lung it was greater than 100 µM; in the test with T-47D breast it was greater than 100 µM; in the test with COLO 205 colon, greater than 100 µM. Besides, the TGI is greater than 100 µM with SN12C renal, greater than 100 µM in the test on 786-0 renal, 86.6 µM with MDA-MB-435 and greater than 100 µM with IGROV1 ovarian.

On to `N=C1N=Nc2nc(C3(c4nc5n(c4O)C(=N)N=N5)Cc4ccccc4C3=O)c(O)n21` (configuration not stated), for which the TGI in the test on UACC-62 melanoma, in the test on DU-145 prostate, in the test on SF-268 CNS, with NCI-H460 lung, with T-47D breast and with COLO 205 colon was greater than 100 µM throughout. For the same compound, the TGI in the test with SN12C renal, in the test with 786-0 renal, in the test on MDA-MB-435 and in the test on IGROV1 ovarian was greater than 100 µM in each case. The GI50 in the test with IGROV1 ovarian was 63.7 µM.

On to `COC(=O)C12OCC34C(CC5C(C)=CC(=O)C(O)C5(C)C3C(O)C1O)OC(=O)C(OC(=O)CC(C)C)C24` (configuration not stated), for which the GI50 was 0.0478 µM and 0.05 µM in the test on UACC-62 melanoma; 0.0671 µM and 0.05 µM in the test with SF-268 CNS; 0.425 µM and 0.05 µM in the test with COLO 205 colon; 0.0829 µM and 0.05 µM in the test on SN12C renal; 0.0223 µM in the test with 786-0 renal; < 0.0288 µM and 0.05 µM in the test on IGROV1 ovarian. The TGI is 0.00425 µM in the test on DU-145 prostate; 0.006 µM in the test on T-47D breast; 0.107 µM and 0.207 µM in the test with 786-0 renal; 0.00697 µM in the test with MDA-MB-435.

On to `COc1ccc2c(c1)c(=O)oc1cc(OC/C(=N\O)c3ccc(F)cc3)ccc12`, for which the GI50 in the test with UACC-62 melanoma is 15.1 µM; with DU-145 prostate it was 33.3 µM; with SF-268 CNS, 24.9 µM; in the test on NCI-H460 lung, 18.6 µM; in the test with T-47D breast it was 28.4 µM; with COLO 205 colon, 15.6 µM. The GI50 in the test with SN12C renal is 16.9 µM; with 786-0 renal it was 13.6 µM; with MDA-MB-435 it was 12.6 µM; in the test with IGROV1 ovarian it was 20.5 µM. Moreover, the TGI is 31.2 µM in the test on UACC-62 melanoma; greater than 100 µM in the test with DU-145 prostate; greater than 100 µM in the test with SF-268 CNS; 53.3 µM in the test with NCI-H460 lung; greater than 100 µM in the test with T-47D breast; 34.6 µM in the test on COLO 205 colon. Besides, the TGI with SN12C renal is 34.3 µM; with 786-0 renal, 33.7 µM; with MDA-MB-435 it was 36.2 µM; in the test with IGROV1 ovarian, 50.5 µM.

Regarding `CCNCCNc1cc(C2CCCC2)c(C#N)c2nc3ccccc3n12`, the GI50 with UACC-62 melanoma was 1.92 µM; in the test with DU-145 prostate, 3.71 µM; with SF-268 CNS, 3.28 µM; with NCI-H460 lung, 2.75 µM; with T-47D breast, 2.58 µM; in the test on COLO 205 colon, 2 µM. Besides, the GI50 in the test with SN12C renal is 3.61 µM; in the test with 786-0 renal, 2.69 µM; with MDA-MB-435 it was 2.62 µM; in the test with IGROV1 ovarian it was 3.5 µM. The TGI came out at 3.76 µM in the test on UACC-62 melanoma; 13.8 µM in the test with DU-145 prostate; 14 µM in the test with SF-268 CNS; 7.19 µM in the test on NCI-H460 lung; 7.14 µM in the test with T-47D breast; 4.71 µM in the test on COLO 205 colon. The TGI in the test with SN12C renal worked out at 12.9 µM; in the test on 786-0 renal, 9.79 µM; in the test on MDA-MB-435, 7.62 µM; with IGROV1 ovarian, 16 µM.

In the case of `COc1ccc(OC)c2c3c(ncc12)-c1cc2c(cc1C3)OCO2`, the GI50 was greater than 100 µM in the test with UACC-62 melanoma; 48.4 µM with DU-145 prostate; 5.6 µM in the test with NCI-H460 lung; greater than 100 µM in the test with T-47D breast; greater than 100 µM in the test with COLO 205 colon; greater than 100 µM in the test with SN12C renal. Besides, the values for the GI50 with 786-0 renal, in the test on MDA-MB-435 and with IGROV1 ovarian were 22.5 µM, greater than 100 µM and 4.24 µM, respectively. Moreover, the TGI in the test with UACC-62 melanoma, in the test with DU-145 prostate, with NCI-H460 lung, in the test on T-47D breast, in the test with COLO 205 colon and in the test on SN12C renal was greater than 100 µM in each case. For the same compound, the TGI in the test on 786-0 renal, with MDA-MB-435 and with IGROV1 ovarian was greater than 100 µM each time.

In the case of `O=C(Nc1cc(Cl)cc(Cl)c1)c1ccc(NC2=C(Cl)C(=O)N(Cc3ccccc3)C2=O)cc1`, the GI50 with UACC-62 melanoma was 4.13 µM; with DU-145 prostate it was 0.96 µM; in the test with SF-268 CNS it was 2.55 µM; with NCI-H460 lung, 1.8 µM; with T-47D breast it was 30.9 µM; with COLO 205 colon it was 28.6 µM. The GI50 in the test on SN12C renal is 6.83 µM; in the test with 786-0 renal it was 2.87 µM; with MDA-MB-435, 11.7 µM; in the test on IGROV1 ovarian it was 1.57 µM. Besides, the TGI is 16.7 µM in the test on UACC-62 melanoma; 6.91 µM in the test with DU-145 prostate; 7.46 µM in the test with SF-268 CNS; 4.51 µM with NCI-H460 lung; greater than 100 µM in the test on T-47D breast; greater than 100 µM with COLO 205 colon. In addition, the TGI worked out at 22.6 µM with SN12C renal, 8.74 µM in the test with 786-0 renal, 25.2 µM in the test on MDA-MB-435 and 3.32 µM with IGROV1 ovarian.

For `CCOCC[P+](c1ccccc1)(c1ccccc1)c1ccccc1`, the GI50 was 27.5 µM in the test on DU-145 prostate; 27.3 µM with SF-268 CNS; 25.7 µM in the test with NCI-H460 lung; 4.21 µM in the test with T-47D breast; 11.7 µM in the test with COLO 205 colon; 24.6 µM with SN12C renal. Moreover, the GI50 in the test with 786-0 renal was 31.3 µM; in the test on MDA-MB-435, 9.26 µM; in the test with IGROV1 ovarian it was 13.5 µM. Further, the TGI in the test with DU-145 prostate is greater than 100 µM; in the test with SF-268 CNS it was greater than 100 µM; in the test on NCI-H460 lung it was greater than 100 µM; in the test with T-47D breast it was greater than 100 µM; with COLO 205 colon, 26.5 µM; with SN12C renal, greater than 100 µM. Besides, the TGI was greater than 100 µM with 786-0 renal, 51.9 µM in the test on MDA-MB-435 and 63.7 µM with IGROV1 ovarian.

These data come from PubChem BioAssay (NCI).
